The record followed here is patent US12122779B2, “Pyrrolo-pyridazine derivatives as muscarinic M1 receptor positive allosteric modulators” (SUVEN LIFE SCIENCES LIMITED, priority 2018, dated 2024).

The nature of series [1]: Rodent pharmacokinetic study. It counts as in vivo, Male Wistar rats. Conditions: male, Wistar, plasma, rat; for bioavailability: oral 3 mg/kg vs intravenous 1 mg/kg, read-out: F (%) Bioavailability. As for the experimental part:
Rodent Pharmacokinetic Study
Male Wistar rats (260±50 grams) were used as experimental animals. Animals were housed individually in polypropylene cage. Two days prior to study, male Wistar rats were anesthetized with isoflurane for surgical placement of jugular vein catheter. Rats were randomly divided for oral (3 mg/kg) and intravenous (1 mg/kg) dosing (n=3/group) and fasted overnight before oral dosing (p.o.). However, rats allocated to intravenous dosing food and water was provided ad libitum.
At pre-determined point, blood was collected through jugular vein and replenished with an equivalent volume of normal saline. Collected blood was transferred into a labeled eppendorf tube containing 10 μL of heparin as an anticoagulant. Typically blood samples were collected at following time points: 0.08, 0.25, 0.5, 1, 2, 4, 6, 8, and 24 h post dose. Blood was centrifuged at 4000 rpm for 10 minutes. Plasma was separated and stored frozen at −80° C. until analysis. The concentrations of the test compounds were quantified in plasma by qualified LC-MS/MS method using suitable extraction technique. The test compounds were quantified in the calibration range around 1-1000 ng/mL in plasma. Study samples were analyzed using calibration samples in the batch and quality control samples spread across the batch.
Pharmacokinetic parameters Cmax, AUCt, T1/2, Clearance and Bioavailability (F) were calculated by non-compartmental model using standard non-compartmental model by using Phoenix WinNonlin 6.0.4 version Software package.

A short description of series [2]: Rodent brain penetration study. It is filed as in vivo, Male Wistar rats. Conditions: male, Wistar, brain and plasma, po; rat, 3 mg/kg p.o., brain-plasma ratio; read-out: Single dose Rat Brain Penetration (Cb/Cp) at 3 mg/kg, p.o. As for the experimental part:
Rodent Brain Penetration Study
Male Wistar rats (260±40 grams) were used as experimental animals. Three animals were housed in each cage. Animals were given water and food ad libitum throughout the experiment and maintained on a 12 h light/dark cycle.
Brain penetration was determined in discrete manner in rats. One day prior to dosing day, male Wistar rats were acclimatized and randomly grouped according to their weight. At each time point (0.50, 1 and 2 h) n=3 animals were used.
The test compounds were suitably preformulated and administered orally at (free base equivalent) 3 mg/kg. Blood samples were removed via cardiac puncture by using isoflurane anesthesia. The animals were sacrificed to collect brain tissue. Plasma was separated and brain samples were homogenized and stored frozen at −20° C. until analysis. The concentrations of the test compounds in plasma and brain were determined using LC-MS/MS method.
The test compounds were quantified in plasma and brain homogenate by qualified LC-MS/MS method using suitable extraction technique. The test compounds were quantified in the calibration range of 1-500 ng/mL in plasma and brain homogenate. Study samples were analyzed using calibration samples in the batch and quality control samples spread across the batch. Extent of brain-plasma ratio (Cb/Cp) was calculated.

The target of series [3] is T1, recombinant human Muscarinic M1 receptor (Homo sapiens, UniProt P11229).
T1 sequence (P11229 1-460): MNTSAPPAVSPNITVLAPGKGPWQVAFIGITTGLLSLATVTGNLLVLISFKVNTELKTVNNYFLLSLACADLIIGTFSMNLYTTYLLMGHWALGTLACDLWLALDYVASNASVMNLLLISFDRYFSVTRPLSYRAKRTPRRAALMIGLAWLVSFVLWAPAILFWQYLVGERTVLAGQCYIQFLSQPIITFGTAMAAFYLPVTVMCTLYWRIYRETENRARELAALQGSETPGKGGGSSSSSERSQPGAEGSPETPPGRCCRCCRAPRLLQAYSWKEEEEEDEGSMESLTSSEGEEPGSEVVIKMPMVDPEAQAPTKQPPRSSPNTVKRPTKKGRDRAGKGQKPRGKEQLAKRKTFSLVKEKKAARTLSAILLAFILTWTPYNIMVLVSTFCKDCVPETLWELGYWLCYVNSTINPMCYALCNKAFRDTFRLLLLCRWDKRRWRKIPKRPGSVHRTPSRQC
Put plainly: Allosteric potency EC50 for muscarinic M1 receptor, CHO pCRE-Luc reporter cell-based assay with EC20 of acetylcholine. Conditions: CHO cells, luciferase activity, in presence of EC20 of acetylcholine, 4 hours. As for the experimental part: Determination of Allosteric Potency EC50 Values for Muscarinic M1 Receptor
A stable CHO cell line expressing recombinant human Muscarinic M1 receptor and pCRE-Luc reporter system was used for cell-based assay. The assay offers a non-radioactive based approach to determine binding of a compound to GPCRs. In this specific assay, the level of intracellular cyclic AMP which is modulated by activation or inhibition of the receptor is measured. The recombinant cells harbor luciferase reporter gene under the control of cyclic AMP response element.
The above cells were grown in 96 well clear bottom white plates in Hams F12 medium containing 10% fetal bovine serum (FBS). Prior to the addition of compounds or standard agonist, cells were serum starved overnight. Increasing concentrations of test compounds were added along with EC20 of acetylcholine in OptiMEM medium to the cells. The incubation was continued at 37° C. in CO2 incubator for 4 hours. Medium was removed and cells were washed with phosphate buffered saline. The cells were lysed and luciferase activity was measured in a Luminometer. Luminescence units were plotted against the compound concentrations using Graphpad software.

Another series concerns Male Wistar rats. Put plainly: Object recognition task model. It counts as in vivo. Conditions: rat, p.o.; for Exploration time mean ± S.E.M, Familiar object / Exploration time mean ± S.E.M, Novel object: choice trial 24 h after T1. As for the experimental part: Object Recognition Task Model
Male Wistar rats (8-10 weeks old) were used as experimental animals. Four animals were housed in each cage. Animals were kept on 20% food deprivation from a day prior to experimentation. Water was provided ad libitum throughout the experiment. Animals were maintained on a 12 h light/dark cycle in temperature and humidity controlled room. The experiment was carried out in a circular or square arena made up of acrylic. Rats were habituated to individual arenas for up to 1 hour in the absence of any objects on day 1.
One group of 12 rats received vehicle and another set of animals received test compounds, before familiar (T1) and choice (T2) trials. During the familiarization phase, (T1), the rats were placed individually in the arena for 3 minutes, in which two identical objects (a1 and a2) were positioned 10 cm from the wall. 24 h after T1, trial for long-term memory test was performed. The same rats were placed in the same arena as they were placed in T1 trial. During the choice phase (T2) rats were allowed to explore the arena for 3 minutes in presence of a copy of familiar object (a3) and one novel object (b). During the T1 and T2 trial, explorations of each object (defined as sniffing, licking, chewing or having moving vibrissae whilst directing the nose towards the object at a distance of less than 1 cm) were recorded using stopwatch. • T1 is the total time spent exploring the familiar objects (a1+a2). • T2 is the total time spent exploring the familiar object and novel object (a3+b).
The object recognition test was performed as described in Behav. Brain Res., 1988, 31, 47-59.

In series [1] (intravenous (bolus), 1 mg/kg), `Cc1cncc(-c2ccc(Cc3cc(C(=O)N[C@H]4CCCC[C@@H]4O)nn4cccc34)cc2)c1` (stereo in doubt) [Example 44, N-[(1S,2S)-2-Hydroxycyclohexyl]-4-[4-(5-methylpyridin-3-yl)-benzyl]-pyrrolo[1,2-b]pyridazine-2-carboxamide] gave an AUC(0-t) of 2290 ± 121 ng·h/mL, a clearance of 7.1 ± 0.4 mL/min/kg and a half-life of 1.7 ± 0.1 h. Further, the bioavailability in series [1] was found to be 64 ± 9%. Further, in series [1] (oral (gavage), 3 mg/kg), the AUC(0-t) worked out at 4430 ± 618 ng·h/mL, the peak level (Cmax) was 1440 ± 241 ng/mL and the half-life was 1.79 ± 0.37 h. Moreover, the Kp in series [2] worked out at 0.17 ± 0.01. In addition, the EC50 in series [3] amounted to 96 nM.
Turning to `Cn1cc(-c2ccc(Cc3cc(C(=O)NCC(C)(C)O)nn4cccc34)cc2)cn1` [Example 19, N-[2-hydroxy-2-methyl-propyl] 4-[4-(1-methyl-1H-pyrazol-4-yl)-benzyl]-pyrrolo[1,2-b]pyridazine-2-carboxamide], in series [1] (intravenous (bolus), 1 mg/kg), the exposure AUC(0-t) worked out at 983 ± 91 ng·h/mL, the clearance stood at 17 ± 1.6 mL/min/kg and the half-life is 0.5 h. The bioavailability in series [1] was 66 ± 18%. In series [1] (oral (gavage), 3 mg/kg), this compound had an AUC(0-t) of 1940 ± 520 ng·h/mL, a Cmax of 933 ± 260 ng/mL and a half-life of 1 ± 0.1 h. The Kp in series [2] was 0.26 ± 0.02. Also, in series [3], the EC50 was 336 nM.
Turning to `CC(C)(O)CNC(=O)c1cc(Cc2ccc(-c3cccnc3)cc2)c2cccn2n1` [Example 29, N-[2-Hydroxy-2-methyl-propyl] 4-[4-(3-pyridyl)-benzyl]-pyrrolo[1,2-b]pyridazine-2-carboxamide], in series [1] (intravenous (bolus), 1 mg/kg), the AUC(0-t) was 2280 ± 161 ng·h/mL, the clearance came to 7.2 ± 0.5 mL/min/kg and the half-life was 1.5 ± 0.1 h. The bioavailability in series [1] was 88 ± 4%. In series [1] (oral (gavage), 3 mg/kg), this compound gave an exposure AUC(0-t) of 6030 ± 279 ng·h/mL, a Cmax of 1810 ± 327 ng/mL and a half-life of 2.2 ± 0.6 h. In the series with Male Wistar rats (1 mg/kg), the Inference entry is recorded as “Active”; the “Exploration time mean ± S.E.M, Familiar object” value worked out at 12.17 ± 1.26 s; the “Exploration time mean ± S.E.M, Novel object” value is 22.26 ± 1.05 s. In series [2], the Kp was 0.31 ± 0.04. Moreover, in series [3], the concentration giving a half-maximal response (EC50) worked out at 1170 nM.
In series [1] (intravenous (bolus), 1 mg/kg), `Cn1cc(-c2ccc(Cc3cc(C(=O)NCC4(O)CCCCC4)nn4cccc34)cc2)cn1` [Example 24, N-[l-Hydroxy-cyclohexylmethyl] 4-[4-(1-methyl-1H-pyrazol-4-yl)-benzyl]-pyrrolo[1,2-b]pyridazine-2-carboxamide] showed an AUC(0-t) of 359 ± 58 ng·h/mL, a clearance of 47 ± 8 mL/min/kg and a half-life of 1.6 ± 0.3 h. Also, in series [1], the bioavailability is 5 ± 1%. Moreover, in series [1] (oral (gavage), 3 mg/kg), the AUC(0-t) was 52 ± 8 ng·h/mL, the peak level (Cmax) was 16 ± 4 ng/mL and the half-life was 1.9 ± 1.1 h. Further, in series [2], the Kp was found to be 0.38. For the same compound, the EC50 in series [3] turned out to be 531 nM.
As for `O=C(NC1CCOCC1)c1cc(Cc2ccc(Cl)cc2)c2cccn2n1` [Example 14, N-[Tetrahydropyran-4-yl]-4-(4-chlorobenzyl)-pyrrolo[1,2-b]pyridazine-2-carboxamide], in series [1] (intravenous (bolus), 1 mg/kg), the AUC(0-t) worked out at 569 ± 74 ng·h/mL, the clearance was found to be 27 ± 1 mL/min/kg and the half-life was 5.7 ± 0.7 h. The bioavailability in series [1] came out at 31 ± 6%. In series [1] (oral (gavage), 3 mg/kg), this compound gave an AUC(0-t) of 532 ± 102 ng·h/mL, a Cmax of 68 ± 22 ng/mL and a half-life of 7.9 ± 1.3 h. Also, in the series with Male Wistar rats (3 mg/kg), the Inference result is “Active”; the “Exploration time mean ± S.E.M, Familiar object” value amounted to 11.28 ± 2.18 s; the “Exploration time mean ± S.E.M, Novel object” value turned out to be 23.08 ± 2.96 s. Also, in series [2], the Kp came to 3.26 ± 0.02. Further, in series [3], the EC50 came out at 976 nM.
For `O=C(NC1CCOCC1)c1cc(Cc2ccc(-c3ccncc3)cc2)c2cccn2n1` [Example 31, N-[Tetrahydropyran-4-yl] 4-[4-(4-pyridyl)-benzyl]-pyrrolo[1,2-b]pyridazine-2-carboxamide], in series [1] (intravenous (bolus), 1 mg/kg), the exposure AUC(0-t) was found to be 576 ± 192 ng·h/mL, the clearance is 30.3 ± 8.9 mL/min/kg and the half-life is 1.5 ± 0.4 h. Further, the bioavailability in series [1] amounted to 114 ± 20%. In series [1] (oral (gavage), 3 mg/kg), this compound showed an AUC(0-t) of 1960 ± 360 ng·h/mL, a Cmax of 363 ± 40 ng/mL and a half-life of 2.8 ± 0.1 h. In addition, in the series with Male Wistar rats (0.1 mg/kg), the Inference entry is on record as “Active”; the “Exploration time mean ± S.E.M, Familiar object” value was 14.19 ± 1.02 s; the “Exploration time mean ± S.E.M, Novel object” value was found to be 20.18 ± 1.21 s. Besides, the Kp in series [2] came to 1.41 ± 0.19. Also, in series [3], the EC50 was determined as 1550 nM.

In general, AUC(0-t) refers to exposure summed from dosing to a finite time, without extrapolation to infinity. Lower therefore signals less exposure. By clearance is commonly meant the rate of elimination divided by the concentration. Read a high clearance as efficient removal. The half-life is the time in which the quantity being followed falls by half. Usually Cmax stands for the highest concentration seen after dosing. In general, EC50 refers to the concentration that produces a half-maximal response.
